Source: patent US12459951B2, “Compounds that interact with RAS superfamily proteins for treatment of cancers, inflammatory diseases, rasopathies, and fibrotic disease” (SHY Therapeutics, LLC, priority 2022, dated 2025)

How the values were obtained:
KRas Q61H mutant = experiment: Ras GTP Binding Domain Inhibition Assay (Ras Superfamily Assay); details: 20 μM compound; for KRas Q61H mutant + SOS: % inh.: with SOS; for KRas Q61H mutant: % inh.: without SOS
Summary of the method: (§1)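 Ni-plate capture of His-tagged protein (10-30 μg/mL, o/n 4° C); cpd 20 μM or dilution series, 1% DMSO, 3 h RT ± Sos 556-1049 last h; 100 nM Cy-labelled GTP 45 min RT; 3× wash; fluorescence read.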

KRas G12D mutant = experiment: as above; details: for KRas G12D mutant + SOS: % inh.: with SOS; for KRas G12D mutant: % inh.: without SOS
Summary of the method: as §1

Rho-A = target: T1, Rho-A (Homo sapiens, UniProt P61586); experiment: as above; details: read-out: Rho-A: % inh..
T1 construct: made in house
T1 sequence (P61586 whole entry): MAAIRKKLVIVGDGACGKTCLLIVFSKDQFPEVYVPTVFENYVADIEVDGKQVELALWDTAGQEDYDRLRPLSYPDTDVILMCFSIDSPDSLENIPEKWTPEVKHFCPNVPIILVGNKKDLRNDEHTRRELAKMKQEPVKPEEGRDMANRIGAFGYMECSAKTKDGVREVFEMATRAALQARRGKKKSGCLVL
Summary of the method: as §1

Akt phosphorylation = experiment: Akt Phosphorylation Assay (western blot), Panc-1; format: cell-based, human; details: at 10 μM, * = activation
Summary of the method: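 Phospho-Akt (Ser473) was measured by western blot in lysates of KRas G12D Panc-1 cells exposed to test compound for 6 h at 37 °C, either at 10 μM final with 0.3% DMSO or as serial dilutions for IC50. One format used overnight 0.5% FBS starvation followed by a 15 min pulse of 1.5 ng/ml EGF. The other used cells in 10% FBS with no stimulation.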

| Compound | KRas Q61H mutant + SOS: % inh. (KRas Q61H mutant) | KRas Q61H mutant: % inh. (KRas Q61H mutant) | KRas G12D mutant + SOS: % inh. (KRas G12D mutant; 20 μM compound) | KRas G12D mutant: % inh. (KRas G12D mutant; 20 μM compound) | inhibition at 20 µM (Rho-A) | % inh of Akt phosphorylation in Panc-1 (Akt phosphorylation) | KRas G12D mutant + SOS: % inh. (KRas G12D mutant; at 20 μM) | KRas G12D mutant: % inh. (KRas G12D mutant; at 20 μM) |
| --- | --- | --- | --- | --- | --- | --- | --- | --- |
| CO[C@H]1CC[C@@H](Nc2nc(-c3ccccn3)nn3cc(-c4ccn(C(C)C)n4)c(-c4ccccc4)c23)C1 (racemic) [Compound 24, rac 6-(1-Isopropyl-1H-pyrazol-3-yl)-N-((1R,3S)-3-methoxycyclopentyl)-5-phenyl-2-(pyridin-2-yl)pyrrolo[2,1-f][1,2,4]triazin-4-amine] | 0 (0 = 0% inhibition) | 0 (0 = 0% inhibition) | 0 (0 = 0% inhibition) | 0 (0 = 0% inhibition) | 0% | A* (1-25% activation) |  |  |
| COCC1CCN(c2nc(-c3ccccn3)nn3cc(-c4ccn(C(C)C)n4)c(-c4ccccc4)c23)C1 (racemic) [Compound 25, rac 6-(1-Isopropyl-1H-pyrazol-3-yl)-4-(3-(methoxymethyl)pyrrolidin-1-yl)-5-phenyl-2-(pyridin-2-yl)pyrrolo[2,1-f][1,2,4]triazine] | A (A = 1-25% inhibition) | A (A = 1-25% inhibition) | A (A = 1-25% inhibition) | A (A = 1-25% inhibition) | 1 to 25% | D (85-100% inhibition) |  |  |
| COC[C@@H]1CC[C@@H]1CNc1nc(-c2ccccn2)nn2cc(-c3ccn(C(C)C)n3)c(-c3ccccc3)c12 (racemic) [Compound 26, rac 6-(1-Isopropyl-1H-pyrazol-3-yl)-N-(((1S,2R)-2-(methoxymethyl)cyclobutyl)methyl)-5-phenyl-2-(pyridin-2-yl)pyrrolo[2,1-f][1,2,4]triazin-4-amine] | A (A = 1-25% inhibition) | A (A = 1-25% inhibition) | A (A = 1-25% inhibition) | 0 (0 = 0% inhibition) | 1 to 25% | C (50-84% inhibition) |  |  |
| COc1cc(Nc2nc(-c3nccn3C)nn3cc(-c4ccn(C(C)C)n4)c(C)c23)n[nH]1 [Compound 51, 6-(1-Isopropyl-1H-pyrazol-3-yl)-N-(5-methoxy-1H-pyrazol-3-yl)-5-methyl-2-(1-methyl-1H-imidazol-2-yl)pyrrolo[2,1-f][1,2,4]triazin-4-amine] |  |  | C (C = 50-75% inhibition) | D (D = 76-100% inhibition) | 76 to 100% | D* (85-100% activation) |  |  |
| Cc1c(-c2ccn(C(C)C)n2)cn2nc(-c3nccn3C)nc(Nc3ccncc3)c12 [Compound 52, 6-(1-Isopropyl-1H-pyrazol-3-yl)-5-methyl-2-(1-methyl-1H-imidazol-2-yl)-N-(pyridin-4-yl)pyrrolo[2,1-f][1,2,4]triazin-4-amine] |  |  | A (A = 1-25% inhibition) | A (A = 1-25% inhibition) | 0% | B (26-49% inhibition) |  |  |
| COc1ccc(Nc2nc(-c3nccn3C)nn3cc(-c4ccn(C(C)C)n4)c(C)c23)nn1 [Compound 74, 6-(1-Isopropyl-1H-pyrazol-3-yl)-N-(6-methoxypyridazin-3-yl)-5-methyl-2-(1-methyl-1H-imidazol-2-yl)pyrrolo[2,1-f][1,2,4]triazin-4-amine] |  |  |  |  | 26 to 49% | D* (85-100% activation) |  |  |
| Cc1c(-c2ccn(C)n2)cn2nc(-c3nccn3C)nc(Oc3cc(N)[nH]n3)c12 [Compound 262, 3-((5-Methyl-2-(1-methyl-1H-imidazol-2-yl)-6-(1-methyl-1H-pyrazol-3-yl)pyrrolo[2,1-f][1,2,4]triazin-4-yl)oxy)-1H-pyrazol-5-amine] |  |  |  |  |  | B (26-49% inhibition) | D (D = 76-100% inhibition) | D (D = 76-100% inhibition) |
| Cc1c(-c2ccn(C)n2)cn2nc(-c3nccn3C)nc(Nc3cc(-c4ccccc4)[nH]n3)c12 [Compound 263, 5-Methyl-2-(1-methyl-1H-imidazol-2-yl)-6-(1-methyl-1H-pyrazol-3-yl)-N-(5-phenyl-1H-pyrazol-3-yl)pyrrolo[2,1-f][1,2,4]triazin-4-amine] |  |  |  |  |  | D* (85-100% activation) | D (D = 76-100% inhibition) | D (D = 76-100% inhibition) |
| Cc1c(-c2ccn(C)n2)cn2nc(-c3nccn3C)nc(Nc3cc(-c4cccnc4)[nH]n3)c12 [Compound 264, 5-Methyl-2-(1-methyl-1H-imidazol-2-yl)-6-(1-methyl-1H-pyrazol-3-yl)-N-(5-(pyridin-3-yl)-1H-pyrazol-3-yl)pyrrolo[2,1-f][1,2,4]triazin-4-amine] |  |  |  |  |  | D* (85-100% activation) | D (D = 76-100% inhibition) | C (C = 50-75% inhibition) |
| Cc1c(-c2ccn(C)n2)cn2nc(-c3nccn3C)nc(Nc3cc(-c4ccccn4)[nH]n3)c12 [Compound 265, 5-Methyl-2-(1-methyl-1H-imidazol-2-yl)-6-(1-methyl-1H-pyrazol-3-yl)-N-(5-(pyridin-2-yl)-1H-pyrazol-3-yl)pyrrolo[2,1-f][1,2,4]triazin-4-amine] |  |  |  |  |  | D* (85-100% activation) | D (D = 76-100% inhibition) | C (C = 50-75% inhibition) |
| Cc1c(-c2ccn(C)n2)cn2nc(-c3nccn3C)nc(Nc3cc(-c4ccncc4)[nH]n3)c12 [Compound 266, 5-Methyl-2-(1-methyl-1H-imidazol-2-yl)-6-(1-methyl-1H-pyrazol-3-yl)-N-(5-(pyridin-4-yl)-1H-pyrazol-3-yl)pyrrolo[2,1-f][1,2,4]triazin-4-amine] |  |  |  |  |  | D* (85-100% activation) | D (D = 76-100% inhibition) | D (D = 76-100% inhibition) |
| Cc1[nH]nc(Nc2nc(-c3nccn3C)nn3cc(-c4ccn(C)n4)c(C)c23)c1C [Compound 267, N-(4,5-Dimethyl-1H-pyrazol-3-yl)-5-methyl-2-(1-methyl-1H-imidazol-2-yl)-6-(1-methyl-1H-pyrazol-3-yl)pyrrolo[2,1-f][1,2,4]triazin-4-amine] |  |  |  |  |  | D* (85-100% activation) | D (D = 76-100% inhibition) | D (D = 76-100% inhibition) |
| Cc1c(-c2ccn(C)n2)cn2nc(-c3nccn3C)nc(Nc3cc(C(C)C)[nH]n3)c12 [Compound 268, N-(5-Isopropyl-1H-pyrazol-3-yl)-5-methyl-2-(1-methyl-1H-imidazol-2-yl)-6-(1-methyl-1H-pyrazol-3-yl)pyrrolo[2,1-f][1,2,4]triazin-4-amine] |  |  |  |  |  | D* (85-100% activation) | D (D = 76-100% inhibition) | C (C = 50-75% inhibition) |
| COc1cccc(-c2cn3nc(-c4nccn4C)nc(N[C@H]4C[C@@H](OC)C4)c3c2-c2ccccc2)c1C [Compound 269, 6-(3-Methoxy-2-methylphenyl)-N-((1s,3s)-3-methoxycyclobutyl)-2-(1-methyl-1H-imidazol-2-yl)-5-phenylpyrrolo[2,1-f][1,2,4]triazin-4-amine] |  |  |  |  |  | C (50-84% inhibition) | B (B = 26-49% inhibition) | B (B = 26-49% inhibition) |
| COc1ccc(F)c(-c2cn3nc(-c4nccn4C)nc(N[C@H]4C[C@H](OC)C4)c3c2-c2ccccc2)c1F [Compound 273, 6-(2,6-Difluoro-3-methoxyphenyl)-N-((1r,3r)-3-methoxycyclobutyl)-2-(1-methyl-1H-imidazol-2-yl)-5-phenylpyrrolo[2,1-f][1,2,4]triazin-4-amine] |  |  |  |  |  | D (85-100% inhibition) | A (A = 1-25% inhibition) | B (B = 26-49% inhibition) |
| COc1cccc(-c2cn3nc(-c4nccn4C)nc(N[C@H]4C[C@H](OC)C4)c3c2-c2ccccn2)c1C [Compound 274, 6-(3-Methoxy-2-methylphenyl)-N-((1r,3r)-3-methoxycyclobutyl)-2-(1-methyl-1H-imidazol-2-yl)-5-(pyridin-2-yl)pyrrolo[2,1-f][1,2,4]triazin-4-amine] |  |  |  |  |  | D (85-100% inhibition) | A (A = 1-25% inhibition) | B (B = 26-49% inhibition) |
| CO[C@H]1C[C@H](Nc2nc(-c3nccn3C)nn3cc(-c4ccn(C)n4)c(C4CC4)c23)C1 [Compound 275, 5-Cyclopropyl-N-((1r,3r)-3-methoxycyclobutyl)-2-(1-methyl-1H-imidazol-2-yl)-6-(1-methyl-1H-pyrazol-3-yl)pyrrolo[2,1-f][1,2,4]triazin-4-amine] |  |  |  |  |  | D* (85-100% activation) | A (A = 1-25% inhibition) | A (A = 1-25% inhibition) |
| COc1ccnc(Nc2nc(-c3nccn3C)nn3cc(-c4ccn(C)n4)c(C4CC4)c23)c1 [Compound 276, 5-Cyclopropyl-N-(4-methoxypyridin-2-yl)-2-(1-methyl-1H-imidazol-2-yl)-6-(1-methyl-1H-pyrazol-3-yl)pyrrolo[2,1-f][1,2,4]triazin-4-amine] |  |  |  |  |  | D* (85-100% activation) | D (D = 76-100% inhibition) | D (D = 76-100% inhibition) |
